These are literature values, as cited in patent publication US7446098B2, “Combination therapy for treating protein deficiencies” (Mount Sinai School of Medicine of New York University, priority 2003, dated 2008).

SMILES strings stand for the structures. Where a chain is given by its changes, count along the chain named.

For one data set, the target named is T1, mutant (R301Q) α-Gal A (Homo sapiens, UniProt P06280, R301Q).
T1 construct: expressed in transfected cells; host or cells: transgenic mice (major organs)
T1 sequence (P06280 32-429 R301Q): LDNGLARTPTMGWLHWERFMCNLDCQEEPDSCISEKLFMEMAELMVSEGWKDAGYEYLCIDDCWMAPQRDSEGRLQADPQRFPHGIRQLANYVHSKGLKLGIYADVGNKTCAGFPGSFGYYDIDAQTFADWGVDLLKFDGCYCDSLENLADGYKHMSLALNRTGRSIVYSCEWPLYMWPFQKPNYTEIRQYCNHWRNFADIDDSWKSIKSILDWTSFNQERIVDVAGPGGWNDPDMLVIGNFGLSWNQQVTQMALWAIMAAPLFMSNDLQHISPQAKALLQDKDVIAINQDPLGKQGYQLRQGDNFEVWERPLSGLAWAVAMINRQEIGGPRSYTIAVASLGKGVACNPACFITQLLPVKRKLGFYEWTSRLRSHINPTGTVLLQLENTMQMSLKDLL
The note with it: oral administration; transgenic mice overexpressing mutant (R301Q) α-Gal A; cited from earlier work.

Data set [1] relates to mutant α-Gal A (R301Q or Q279E). Conditions: lymphoblasts from Fabry patients with R301Q or Q279E mutations; cited from earlier work.
In another data set the target is T2, wild-type α-Gal A (Homo sapiens, UniProt P06280).
T2 construct: expressed in transfected cells; host or cells: COS-7
T2 sequence (P06280 32-429): T1 sequence (P06280 32-429 R301Q) with Q270R
The note with it: transfected COS-7 cells; cited from earlier work.

A further data set has as its target T3, mutant α-Gal A (R301Q) (Homo sapiens, UniProt P06280, R301Q).
T3 sequence (P06280 32-429 R301Q): T1 sequence (P06280 32-429 R301Q)
Conditions: neutral pH; cited from earlier work.

As to `OC[C@H]1NC[C@H](O)[C@@H](O)[C@H]1O` [DGJ, 1-deoxygalactonojirimycin], at mutant (R301Q) α-Gal A, the “enzyme activity in major organs” value is listed as “substantially elevated”. The “mutant enzyme activity in lymphoblasts” value in data set [1] was “enhanced”. On wild-type α-Gal A, the “activity of wild-type α-Gal A” value is on record as “able to increase” and the “amount of wild-type α-Gal A” value is “able to increase”. Moreover, the “in vitro stability of mutant α-Gal A (R301Q)” value at mutant α-Gal A (R301Q) is on record as “effectively increased”.
